US7026270B2, “Biocidal compounds and their preparation” (Syngenta Crop Protection, Inc., priority 2002, dated 2006)

What was measured:
Type in all cases: in vivo
[1] = tested on: Puccinia triticina (PUCCRT); test: Foliar fungicidal test on wheat, 1 day protectant, Puccinia triticina; settings: 100 ppm foliar spray on wheat; inoculated one day after chemical application; banded assessment
Method: (§1) This Example illustrates the fungicidal properties of the compounds of formula (I). The compounds were tested against a variety of foliar fungal diseases of plants. The technique employed was as follows. Plants were grown on an artificial, cellulose based growing medium. The test compounds were individually diluted in reverse osmosis water to a final concentration of 100 ppm in water (that is, 1 mg of compound in a final volume of 10 ml) immediately before use. TWEEN 20 (at a final concentration of 0.05% by volume) was added with the water to improve retention of the spray deposit. TWEEN is a registered trade mark. The compounds were applied to the foliage of the test plants by spraying the plant to maximum droplet retention. […] After chemical application and inoculation, the plants were incubated under high humidity conditions (except those inoculated with Blumeria graminis f.sp. tritici) and then put into an appropriate environment to allow infection to proceed until the disease was ready for assessment. […] However, each individual disease was assessed after the same time period for all compounds. […] The disease level present (the percentage leaf area covered by actively sporulating disease) was assessed visually. For each treatment, the assessed values for all its replicates were meaned to provide mean disease values. Untreated control plants were assessed in the same manner. […]

[2] = tested on: Blumeria graminis f.sp. tritici (ERYSGT); test: Foliar fungicidal test on wheat, 6 hour protectant, Blumeria graminis f.sp. tritici; settings: 100 ppm foliar spray on wheat; inoculated 6 hours after chemical application; banded assessment
Method: as §1

[3] = tested on: Stagonospora Nodorum (LEPTNO); test: Foliar fungicidal test on wheat, 1 day protectant, Stagonospora Nodorum; settings: 100 ppm foliar spray on wheat; inoculated one day after chemical application; banded assessment
Method: as §1

Compound	PRCO (Percentage Disease Reduction from Control) PUCCRT 1 day Protectant [1]	PRCO (Percentage Disease Reduction from Control) ERYSGT 6 hour Protectant [2]	PRCO (Percentage Disease Reduction from Control) LEPTNO 1 day Protectant [3]
CO[C@@H]1CO[C@H]2[C@@H](O)[C@H](c3c[nH]c(=O)[nH]c3=O)O[C@@H]2[C@@H]1NC(N)=O (stereo in doubt) [(II), Malayamycin A]	100	100	100
NC(=O)N[C@H]1[C@H]2O[C@@H](c3c[nH]c(=O)[nH]c3=O)[C@H](O)[C@@H]2OC[C@H]1O (stereo in doubt) [(III), Desmethylmalayamycin A]	100	0	99
